The values that follow come from patent US6525059B1, “Substituted pyrazoles as p38 kinase inhibitors” (G. D. Searle & Company, priority 1998, dated 2003).

Read-outs that look alike come from different tables or passages of the source. A value given as a limit tells only on which side of the number the result lay.

The target in experiment [1] is T1, human GST-p38 kinase alpha (Homo sapiens, UniProt Q16539).
T1 construct: The coding region of the human p38a cDNA was obtained by PCR-amplification from RNA isolated from the human monocyte cell line THP.1; made in house; host or cells: E. coli DH10B
As to the kind of experiment: p38 kinase in vitro assay, second format, phosphorylation of EGFRP with 33P-ATP. To be noted: p38α in vitro, EGFRP assay procedure; read-out: p38^2 IC50. The format is biochemical. The essentials: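 Activated human GST-p38α (pre-activated with GST-MKK6, 1 h, 30 °C) phosphorylates EGFR 21-mer peptide (200 μM) with 50 μM ATP plus γ-33P-ATP, pH 7.5, 60 min at room temperature. Unreacted ATP removed by AG 1×8 resin; supernatant scintillation-counted.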

The test system of a further experiment is TNF alpha. Nature of the experiment: Mouse model of LPS-induced TNF alpha production. The class given is in vivo. To be noted: for inhibition in vivo at 100 mg/kg: 100 mpk oral gavage. How it is done: TNF alpha was induced in 10-12 week old BALB/c female mice by tail vein injection with 100 ng lipopolysaccharide (from S. Typhosa) in 0.2 ml saline. One hour later mice were bled from the retroorbital sinus and TNF concentrations in serum from clotted blood were quantified by ELISA.
Efficacy was determined at each time point as percent inhibition of serum TNF levels relative to LPS injected mice that received vehicle only
wherein in the dose is milligram per kilogram (mpk) administered by oral gavage and the predose time indicates the number of hours before LPS challenge when the compound is administered.

The next experiment has as its target T2, human p38 kinase alpha (Homo sapiens, UniProt Q16539).
T2 construct: The coding region of the human p38a cDNA was obtained by PCR-amplification from RNA isolated from the human monocyte cell line THP.1; GST (N); made in house; host or cells: E. coli DH10B
As to the kind of experiment: p38 kinase in vitro assay, phosphorylation of biotinylated PHAS-I with gamma 32P-ATP. The class given is biochemical. The essentials: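 MKK6-activated human p38α phosphorylates biotinylated PHAS-I with γ-32P-ATP in 25 mM HEPES pH 7.5, 10 mM Mg acetate, 50 μM unlabeled ATP, 1% DMSO, 30 °C for 1 h or overnight. Compounds at 100–0.001 μM (10-fold steps, triplicate); substrate captured on streptavidin filter plates and counted by scintillation.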

In experiment [2] the test system is TNF-α. Nature of the experiment: LPS stimulation of TNF production by U937 cells. The format is cell-based, human. The essentials: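 PMA-differentiated human U937 cells (20 ng/ml PMA, 24 h, then 24-48 h rest) at 2 million cells/ml, 0.1% DMSO final, stimulated with E. coli LPS (100 ng/ml final) for 4 h at 37° C. TNF-α in medium measured by ELISA; IC50 in μM.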

In experiment [3] the test system is TNF-α. As to the kind of experiment: Rat assay: LPS-challenged rats, serum TNF-α by ELISA. The class given is in vivo. To be noted: Rattus norvegicus, po, 3 mpk oral gavage, read-out: Rat LPS Model % inhib @ dose @ predose time. (ELISA stands for enzyme-linked immunosorbent assay.)
[4] abbreviates: mouse, oral, 1h before LPS, 30 mpk, read-out: mLPS 1h, 30 mpk percent inhibition.
The mark [5] stands for this setting: read-out: P38 alpha kinase IC50.
Where [6] appears, read: Mus musculus, 30 mpk oral gavage, -6h before LPS, read-out: Mouse LPS Model % TNF inhib @ dose @ predose time.
Setting [7] is: Homo sapiens, U-937, TNF production, LPS-stimulated human U937 cells, read-out: U937 Cell IC50.
[8] abbreviates: p38α in vitro, PHAS-I assay procedure, read-out: p38^1 IC50.
Setting [9] is: Homo sapiens, U-937, LPS-stimulated U937 cells, read-out: U937 IC50.
[10] abbreviates: Mus musculus, -6h before LPS, read-out: Mouse LPS Model % TNF inhib @ dose @ predose time.

T1 sequence (Q16539 whole entry): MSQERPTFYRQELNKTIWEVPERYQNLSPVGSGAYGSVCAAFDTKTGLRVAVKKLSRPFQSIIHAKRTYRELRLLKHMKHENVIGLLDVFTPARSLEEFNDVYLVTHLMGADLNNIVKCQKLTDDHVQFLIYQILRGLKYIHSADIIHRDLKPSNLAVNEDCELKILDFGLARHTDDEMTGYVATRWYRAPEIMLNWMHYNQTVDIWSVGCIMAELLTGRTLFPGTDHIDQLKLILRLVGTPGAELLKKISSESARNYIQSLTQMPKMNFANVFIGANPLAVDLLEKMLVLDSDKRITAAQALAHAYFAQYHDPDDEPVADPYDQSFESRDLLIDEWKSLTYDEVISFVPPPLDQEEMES
T2 sequence (Q16539 whole entry): as above

In general, IC50 refers to the concentration that inhibits the measured activity by half. For `Brc1ccc(-c2n[nH]cc2-c2ccncc2)cc1` [Example A-241, 4-[3-(4-bromophenyl)-1H-pyrazol-4yl]pyridine], in experiment [1], the IC50 was 0.338 µM. Also, in the experiment with TNF alpha (setting [4]), the inhibition in vivo at 30 mg/kg stood at 87%.

With `COc1ccc(S(=O)(=O)NCc2[nH]nc(-c3ccc(F)cc3)c2-c2ccncc2)cc1` [Example B-0117], the IC50 stood at 0.46 µM at human p38 kinase alpha (setting [5]) and 1.78 µM in the experiment on TNF-α [2] (setting [7]). The inhibition in vivo at 30 mg/kg in the experiment with TNF alpha (setting [6]) was 30%.

Take `OCCn1cc(-c2ccnc(CCc3ccc(F)cc3)c2)c(-c2ccc(F)cc2)n1` [Example A-272, 3-(4-fluorophenyl)-4-[2-[2-(4-fluorophenyl)ethyl]-4-pyridinyl]-1H-pyrazole-1-ethanol]: the half-inhibitory concentration (IC50) on human p38 kinase alpha (setting [8]) was 0.073 µM; in the experiment with TNF-α [2] (setting [9]), 0.583 µM. The inhibition in vivo at 30 mg/kg in the experiment with TNF alpha (setting [4]) was -8%.

Turning to `O=C(COc1ccc(Cl)cc1)NCc1[nH]nc(-c2ccc(F)cc2)c1-c1ccncc1` [Example B-0093], the IC50 at human p38 kinase alpha (setting [5]) stood at 3.18 µM; in the experiment with TNF-α [2] (setting [7]) it was 1.25 µM. The inhibition in vivo at 30 mg/kg in the experiment with TNF alpha (setting [6]) is 30%.

Take `O=C(NCc1[nH]nc(-c2ccc(F)cc2)c1-c1ccncc1)c1c(F)cc(F)cc1F` [Example B-0051]: in the experiment with TNF-α [3] (4 h, 4h), the inhibition in vivo at 3 mg/kg is 79%. The inhibition in vivo at 100 mg/kg with TNF alpha (setting [10]) amounted to 47%. For the same compound, the IC50 in the experiment on TNF-α [2] (setting [7]) worked out at 2.15 µM.

In the case of `O=S(=O)(Cc1ccccc1)NCc1[nH]nc(-c2ccc(F)cc2)c1-c1ccncc1` [Example B-0120], the inhibition in vivo at 3 mg/kg in the experiment on TNF-α [3] (-4 h, -4h before LPS) came to 70%. Besides, the IC50 on human p38 kinase alpha (setting [5]) was 0.008 µM; in the experiment on TNF-α [2] (setting [7]) it was 0.21 µM. Besides, the inhibition in vivo at 100 mg/kg with TNF alpha (setting [10]) came to 77%.

Take `Cn1cc(-c2ccncc2)c(-c2ccc(F)c(F)c2)n1` [Example A-242, 4-[3-(3,4-difluorophenyl)-1-methyl-1H-pyrazol-4-yl]pyridine]: the half-inhibitory concentration (IC50) in experiment [1] came out at 0.047 µM. Also, the inhibition in vivo at 30 mg/kg in the experiment on TNF alpha (setting [4]) was found to be 87%.

For the compound `Cn1nc(-c2ccc(F)cc2)c(-c2ccncc2)c1C(O)c1ccccc1` (stereo not drawn) [Example A-217, 3-(4-fluorophenyl)-1-methyl -α-phenyl-4-(4-pyridinyl)-1H-pyrazole-5-methanol], the values for the IC50 on human p38 kinase alpha (setting [8]) and in the experiment on TNF-α [2] (setting [9]) were 0.697 µM and 0.349 µM, respectively. In the experiment on TNF alpha (setting [4]), the inhibition in vivo at 30 mg/kg was determined as 9%.

On to `Fc1cccc(-c2n[nH]cc2-c2ccncc2)c1` [Example A-227, 4-[3-(3-fluorophenyl)-1H-pyrazol-4-yl]pyridine], for which the IC50 in experiment [1] turned out to be 0.06 µM. In addition, the inhibition in vivo at 30 mg/kg in the experiment with TNF alpha (setting [4]) is 96%.

On to `CN(C)CCn1cc(-c2ccnc(N(C)C)c2)c(-c2ccc(F)cc2)n1` [Example A-273, 4-[1-[2-(dimethylamino)ethyl]-3-(4-fluorophenyl)-1H-pyrazol-4-yl]-N,N-dimethyl-2-pyridinamine], for which the IC50 at human p38 kinase alpha (setting [8]) was 6.98 µM; in the experiment on TNF-α [2] (setting [9]), over 10 µM. Further, the inhibition in vivo at 30 mg/kg in the experiment on TNF alpha (setting [4]) amounted to 43%.

`C[C@@H](NS(=O)(=O)c1ccc(F)cc1)c1[nH]nc(-c2ccc(F)cc2)c1-c1ccncc1` [Example B-0385]: the inhibition in vivo at 3 mg/kg in the experiment on TNF-α [3] (-4 h, -4h before LPS) is 0%. For the same compound, the IC50 came out at 0.057 µM on human p38 kinase alpha (setting [5]) and 0.9 µM in the experiment on TNF-α [2] (setting [7]). For the same compound, in the experiment on TNF alpha (setting [6]), the inhibition in vivo at 30 mg/kg is 30%.

Turning to `CCC(CO)Nc1cc(-c2c[nH]nc2-c2ccc(F)cc2)ccn1` (centres unmarked) [Example A-213, 2-[[4-[3-(4-fluorophenyl)-1H-pyrazol-4-yl]-2-pyridinyl]amino)-1-butanol], the IC50 in experiment [1] came out at 0.22 µM. Also, the inhibition in vivo at 30 mg/kg in the experiment on TNF alpha (setting [4]) turned out to be 57%.

With `Cc1c(-c2ccncc2)c(-c2ccc(F)cc2)nn1CC(=O)NCCc1ccc(Oc2ccccc2)cc1` [Example B-2286], the IC50 on human p38 kinase alpha (setting [5]) turned out to be 0.017 µM; in the experiment with TNF-α [2] (TNF production, LPS-stimulated human U937 cells, read-out: U937 Cell IC50), 0.78 µM. The “Mouse LPS Model % TNF inhib @ dose @ predose time” value in the experiment on TNF alpha (30 mpk oral gavage, 1 h before LPS challenge) is on record as 25% @ 30 mpk @ -1h.

In the case of `C[C@@H](NC(=O)c1ccccc1I)c1[nH]nc(-c2ccc(F)cc2)c1-c1ccncc1` [Example B-0354], in the experiment on TNF-α [3] (-4 h, -4h before LPS), the inhibition in vivo at 3 mg/kg is 54%. Moreover, the IC50 was found to be 1 µM at human p38 kinase alpha (setting [5]) and 0.66 µM in the experiment on TNF-α [2] (setting [7]). The inhibition in vivo at 30 mg/kg in the experiment with TNF alpha (setting [6]) came to 51%.

On to `C[C@@H](NC(=O)c1ccccc1C(F)(F)F)c1[nH]nc(-c2ccc(F)cc2)c1-c1ccncc1` [Example B-0368], for which the results for the IC50 on human p38 kinase alpha (setting [5]) and in the experiment on TNF-α [2] (setting [7]) were 1 µM and 0.64 µM, respectively. For the same compound, the inhibition in vivo at 30 mg/kg with TNF alpha (setting [6]) turned out to be 37%.
